Test results from ChEMBL document CHEMBL2331411, “Pyrrolopyrimidine inhibitors of DNA gyrase B (GyrB) and topoisomerase IV (ParE). Part I: Structure guided discovery and optimization of dual targeting agents with potent, broad-spectrum enzymatic activity” (Bioorg Med Chem Lett, 2013).
≈ marks a conversion by molar mass, not a printed value.

How the values were obtained:
[1] = Inhibition of Enterococcus faecalis DNA gyrase subunit B using ATP as substrate assessed as release of inorganic phosphate incubated for 10 mins prior to substrate addition measured after 30 mins by spectrophotometric analysis
[2] = Inhibition of Francisella tularensis DNA gyrase subunit B using ATP as substrate assessed as release of inorganic phosphate incubated for 10 mins prior to substrate addition measured after 30 mins by spectrophotometric analysis
[3] = Inhibition of Escherichia coli DNA topoisomerase 4 subunit B using ATP as substrate assessed as release of inorganic phosphate incubated for 10 mins prior to substrate addition measured after 30 mins by spectrophotometric analysis
[4] = Inhibition of Enterococcus faecalis DNA topoisomerase 4 subunit B using ATP as substrate assessed as release of inorganic phosphate incubated for 10 mins prior to substrate addition measured after 30 mins by spectrophotometric analysis
[5] = Inhibition of Francisella tularensis DNA topoisomerase 4 subunit B using ATP as substrate assessed as release of inorganic phosphate incubated for 10 mins prior to substrate addition measured after 30 mins by spectrophotometric analysis
Staphylococcus aureus = assay: Antibacterial activity against Staphylococcus aureus assessed as growth inhibition; type: functional
[6] = Inhibition of Acinetobacter baumannii DNA topoisomerase 4 subunit B using ATP as substrate assessed as release of inorganic phosphate incubated for 10 mins prior to substrate addition measured after 30 mins by spectrophotometric analysis

Row | Structure (SMILES) | Ki [1] | Ki [2] | Ki [3] | Ki [4] | Ki [5] | MIC (Staphylococcus aureus) | Ki [6]
1 | CCc1[nH]c2nc(Sc3ccc4c(c3)C(=O)NC4)nc(N3CC[C@@H](N)C3)c2c1Cl | 7 nM | 9 nM | 11 nM | 19 nM | 2 nM | – | –
2 | CCc1[nH]c2nc(Sc3cnc4[nH][nH]c(=O)c4c3)nc(N3CC[C@@H](N)C3)c2c1Cl | 6 nM | 5 nM | 6 nM | 24 nM | 4 nM | – | –
3 | CCc1[nH]c2nc(Sc3ccc4nc[nH]c(=O)c4c3)nc(N3CC[C@@H](N)C3)c2c1Cl | < 1 nM | – | 4 nM | 14 nM | 2 nM | – | –
4 | CCc1[nH]c2nc(Sc3cnc4ncc(=O)[nH]c4c3)nc(N3CC[C@@H](N)C3)c2c1Cl | < 1 nM | 1 nM | 11 nM | 13 nM | 6 nM | – | –
5 | CCc1[nH]c2nc(Sc3ccc4cc5c(nc4c3)C(=O)OC5)nc(N3CC[C@@H](N)C3)c2c1Cl | < 1 nM | – | < 1 nM | < 1 nM | 2 nM | – | –
6 | CCc1[nH]c2nc(Sc3cncnc3)nc(N3CC4C(N)C4C3)c2c1Cl (configuration not stated) | 5 nM | 2 nM | 36 nM | 79 nM | 15 nM | – | –
7 | CCc1[nH]c2nc(Sc3cnc4cccnc4c3)nc(N3CC4C(N)C4C3)c2c1Cl (configuration not stated) | 1 nM | < 1 nM | 1 nM | 10 nM | 2 nM | – | –
8 | CCc1[nH]c2nc(Oc3cncnc3)nc(N3CC[C@@H](N)C3)c2c1Cl | < 1 nM | 3 nM | 38 nM | 84 nM | 15 nM | – | –
9 | CCc1[nH]c2nc(Oc3cncnc3)nc(N3CC4C(N)C4C3)c2c1Cl (configuration not stated) | < 1 nM | – | 4 nM | 10 nM | 2 nM | – | –
10 | CCc1[nH]c2nc(Oc3cnc4cccnc4c3)nc(N3CC4C(N)C4C3)c2c1Cl (configuration not stated) | < 1 nM | – | < 1 nM | 3 nM | – | – | –
11 | CCc1[nH]c2nc(Sc3cnc4nccnc4c3)nc(N3CCC(N)CC3)c2c1Cl | < 1 nM | 3 nM | 36 nM | 69 nM | 6 nM | – | –
12 | CCc1[nH]c2nc(Sc3cnc4nccnc4c3)nc(N3C[C@H]4CN[C@H]4C3)c2c1Cl | < 1 nM | – | 2 nM | 9 nM | 1 nM | – | –
13 | CCc1[nH]c2nc(Sc3cnc4nccnc4c3)nc(N3C[C@H]4CCN[C@H]4C3)c2c1Cl | 6 nM | < 1 nM | 6 nM | 19 nM | 9 nM | – | –
14 | CCc1[nH]c2nc(Sc3cnc4nccnc4c3)nc(N3C[C@H]4CCCN[C@H]4C3)c2c1Cl | 9 nM | < 1 nM | 17 nM | 29 nM | 10 nM | – | –
15 | CCc1[nH]c2nc(Sc3cnc4nccnc4c3)nc(N3CC4C(N)C4C3)c2c1Cl (configuration not stated) | < 1 nM | – | < 1 nM | 4 nM | – | – | –
16 | CCc1[nH]c2nc(Sc3cncnc3)nc(N3CC[C@@H](N)C3)c2c1Cl | 4 nM | 8 nM | 127 nM | 157 nM | 36 nM | – | –
17 | CCc1[nH]c2nc(Sc3ccc4cccnc4c3)nc(N3CC[C@@H](N)C3)c2c1Cl | 4 nM | 10 nM | 80 nM | 148 nM | 27 nM | – | –

Row | Structure (SMILES) | Ki [1] | Ki [2] | Ki [3] | Ki [4] | Ki [5] | MIC (Staphylococcus aureus) | Ki [6]
18 | CCc1[nH]c2nc(Sc3ccc4ccc[n+]([O-])c4c3)nc(N3CC[C@@H](N)C3)c2c1Cl | < 1 nM | – | 7 nM | 15 nM | 3 nM | – | –
19 | CCc1[nH]c2nc(Sc3cnc4cccnc4c3)nc(N3CC[C@@H](N)C3)c2c1Cl | < 1 nM | – | < 1 nM | 2 nM | – | – | –
20 | CCc1[nH]c2nc(Sc3ccc4cncnc4c3)nc(N3CC[C@@H](N)C3)c2c1Cl | < 1 nM | – | 5 nM | 7 nM | 2 nM | – | –
21 | CCc1[nH]c2nc(Sc3cnc4ccc[n+]([O-])c4c3)nc(N3CC[C@@H](N)C3)c2c1Cl | < 1 nM | – | 5 nM | 5 nM | 1 nM | – | –
22 | CCc1[nH]c2nc(Sc3ccc4ccc(C(=O)O)nc4c3)nc(N3CC[C@@H](N)C3)c2c1Cl | < 1 nM | – | 2 nM | 4 nM | 4 nM | – | –
23 | CCc1[nH]c2nc(Sc3ccc4c(N5CCC(N)C5)cc(C(=O)O)nc4c3)nc(N3CC[C@@H](N)C3)c2c1Cl (some centres not stated) | < 1 nM | – | 7 nM | 19 nM | 6 nM | – | –
24 | CCc1[nH]c2nc(Sc3ccc4nc(N)n[n+]([O-])c4c3)nc(N3CC[C@@H](N)C3)c2c1Cl | < 1 nM | – | 2 nM | 7 nM | – | – | –
25 | CCc1cc2c(Cl)nc(Sc3cccnc3)nc2[nH]1 | > 50000 nM | – | – | – | – | > 64 mg/L | –
26 | CCc1[nH]c2nc(Sc3cccnc3)nc(Cl)c2c1C=O | 800 nM | 1200 nM | – | 3700 nM | 8700 nM | 64 mg/L (≈ 201 µM) | –
27 | CCc1[nH]c2nc(Sc3cccnc3)nc(Cl)c2c1C(C)=O | 2000 nM | 6600 nM | – | 1000 nM | > 20000 nM | 64 mg/L (≈ 192 µM) | –
28 | CCc1[nH]c2nc(Sc3cccnc3)nc(Cl)c2c1C(F)F | 1700 nM | 500 nM | – | 1200 nM | 400 nM | 64 mg/L (≈ 188 µM) | –
29 | CCc1[nH]c2nc(Sc3cccnc3)nc(Cl)c2c1Cl | 400 nM | 500 nM | – | 3500 nM | – | 4 mg/L (≈ 12.3 µM) | 2000 nM
30 | CCc1[nH]c2nc(Sc3cccnc3)nc(Cl)c2c1Br | 300 nM | 400 nM | – | 3500 nM | 1200 nM | 2 mg/L (≈ 5.41 µM) | –
31 | CCc1[nH]c2nc(Sc3cccnc3)nc(OC)c2c1C=O | 200 nM | 800 nM | – | 1200 nM | 900 nM | – | –
32 | CCc1[nH]c2nc(Sc3cnc4nccnc4c3)nc(N3CC(N)C3)c2c1Cl | 4 nM | 7 nM | 39 nM | 65 nM | 4 nM | – | –
33 | CCc1[nH]c2nc(Sc3cnc4nccnc4c3)nc(N3CC[C@@H](N)C3)c2c1Cl | 2 nM | < 1 nM | 11 nM | 23 nM | 4 nM | – | –
34 | CCc1[nH]c2nc(Sc3ccc4[nH]cc(C(=O)O)c(=O)c4c3)nc(N3CC[C@@H](N)C3)c2c1Cl | < 1 nM | – | < 1 nM | 6 nM | – | – | –
